Assay results taken from patent publication US6444832B1, “Amino alcohol derivatives, method of producing said derivatives and medicaments containing them” (priority 1995, dated 2002).

Tested on: primary osteoblastic cells of foetal rat calvariae
Assay: DNA synthesis assay in primary cultures of osteoblasts from fetal rat calvariae (3H-thymidine incorporation)
Assay type: cell-based
Settings: 1 μg/ml; 24 hours incubation, methyl-3H-thymidine during the last 3 hours; medium containing BSA control = 100%
Method: Compounds of formula (I) were examined in a DNA synthesis assay in primary cultures of osteoblasts from fetal rat calvariae. The experiments were carried out in accordance with Pfeilschifter et al., Endocrinology 126, 703 (1990).
Primary osteoblasts were isolated from foetal rat calvariae by sequential digestion with collagenase. In this process 5 cell fractions were obtained. A pool from the cell fractions 3-5 were cultured in vitro. The cells were cultured in an incubator at a relative air humidity of 95%, a CO2 content of 5% and a temperature of 37° C. The test substances were examined in the cultures of the first, second or third cell passage. For the examinations the cells were sown at a cell count of 7×10^3 cells (in 100 μl culture medium)/well in microtitre plates at least 76 hours before applying the test substances. MEM Dulbecco (plus 4.5 g/l glucose plus 3.7 g/l NaHCO3 without glutamine) was used as the culture medium to which 5% foetal calf serum (FCS) and […] penicillin/streptomycin had been added. Immediately before addition of the test substances to the cell culture the medium was replaced by 150 μl medium which contained 1 mg/ml bovine serum albumin (BSA) instead of FCS. Test substances were added at the desired concentrations to the medium containing BSA. TGFβ1 (transforming growth factor β1) at concentrations of 0.1-0.2 ng/ml were also examined as a positive control. Three determinations were carried out per (positive) control or substance concentration. The cell cultures were incubated for 24 hours with test substances, a thymidine probe (1 μCi methyl-^3H-thymidine in 20 μl PBS solution) being additionally present during the last 3 hours. At the end of the incubation period the cell cultures were washed three times with 0.9% saline solution and subsequently admixed with 100 μl liquid scintillator each time (OptiPhase Supermix TM®). Afterwards the radioactivity incorporated into the DNA was measured in cpm in a liquid scintillation counter (1450 MicroBeta®). Cell cultures which had only received medium containing BSA served as controls (100%).

SMILES | Rate of DNA synthesis of primary osteoblastic cells of foetal rat calvariae in percent compared to the control (=100%) [%]
CCCC/C=C\CCCCCCCC(=O)NC(CO)CCCC (stereo not drawn) [Example 19] | 298
CCCCCCCC/C=C\CCCCCCCC(=O)NC(CO)CCCC (stereo not drawn) [Example 26] | 296
CCCCC/C=C\C/C=C\CCCCCCCC(=O)N[C@H](CC)CO (stereo in doubt) [Example 27] | 252
CCCCCCCCC#CCCCCCCCC(=O)NC(CO)CCCC (stereo not drawn) [Example 20] | 250
CCCCCCCC/C=C/CCCCCCCC(=O)NC(CO)CCCC (stereo not drawn) [Example 21] | 188
CCCCC/C=C\C/C=C\CCCCCCCC(=O)NC(CO)CCCC (stereo not drawn) [Example 24] | 223
CC/C=C\C/C=C\C/C=C\CCCCCCCC(=O)N[C@@H](CO)CCCC (stereo in doubt) [Example 9] | 367
CCCCCC/C=C\CCCCCCCC(=O)NC(CO)CCCC (stereo not drawn) [Example 11] | 191
CCCCC/C=C\C/C=C\CCCCCCCC(=O)N[C@@H](CO)CCCC (stereo in doubt) [Example 10] | 475
